Patent publication US5585491A, “Antibacterial agents” (Otsuka Pharmaceutical Co., Ltd., priority 1995, dated 1996)
Values after ≈ are worked out from the molar mass of the structure shown. Read-outs that look alike come from different tables or passages of the source.

Experiments:
Assay in all cases: In vitro antibacterial activity, microtitration dilution method (MIC)
Format in all cases: cell-based
Escherichia coli Vogel = conditions: read-out: Minimal Inhibitory Concentration MIC
Description: (§1) The compounds of the invention display antibacterial activity when tested by the microtitration dilution method as described in Heifetz, et al, Antimicr. Agents & Chemoth., 6, 124 (1974), which is incorporated herein by reference. By use of this method, the followed minimum inhibitory concentration values (MICs in μg/mL) were obtained for representative compounds of the invention.

[1] = test system: Enterobacter cloacae MA 2646
Description: as §1

[2] = test system: Staphylococcus aureus H 228; conditions: H228; Staphylococcus aureus H 228, microtitration dilution; read-out: Minimal Inhibitory Concentration MIC
Description: as §1

[3] = test system: Streptococcus pyogenes C-203; conditions: C203; Streptococcus pyogenes C-203, microtitration dilution; read-out: Minimal Inhibitory Concentration MIC
Description: as §1

[4] = test system: Pseudomonas aeruginosa UI-18; conditions: UI18; Pseudomonas aeruginosa UI-18, microtitration dilution; read-out: Minimal Inhibitory Concentration MIC
Description: (§2) Agents & Chemoth., 6, 124 (1974), which is incorporated herein by reference.

[5] = test system: Streptococcus faecalis MGH-2; conditions: Enterococcus faecalis, MGH2; Streptococcus faecalis MGH-2, microtitration dilution; read-out: Minimal Inhibitory Concentration MIC
Description: as §2

[6] = test system: Streptococcus pneumoniae SV-1; conditions: SV1; Streptococcus pneumoniae SV-1, microtitration dilution; read-out: Minimal Inhibitory Concentration MIC
Description: as §2

Proteus rettgeri M 1771 = conditions: Providencia rettgeri, M1771; Proteus rettgeri M 1771, microtitration dilution; read-out: Minimal Inhibitory Concentration MIC
Description: as §2

[7] = test system: Klebsiella pneumoniae MGH-2
Description: as §2

[8] = test system: Staphylococcus aureus UC-76
Description: as §2

[9] = Escherichia coli Vogel, microtitration dilution
[10] = MA2646, Enterobacter cloacae MA 2646, microtitration dilution, read-out: Minimal Inhibitory Concentration MIC
[11] = MGH2, Klebsiella pneumoniae MGH-2, microtitration dilution, read-out: Minimal Inhibitory Concentration MIC
[12] = UC76, Staphylococcus aureus UC-76, microtitration dilution, read-out: Minimal Inhibitory Concentration MIC
[13] = Enterobacter cloacae, MA2646, read-out: Minimal Inhibitory Concentration MIC
[14] = Staphylococcus aureus, UC76, read-out: Minimal Inhibitory Concentration MIC

Compound `Cc1c(F)c(N2CCNCC2)cc2c1c(=O)c(C(=O)O)cn2-c1ccc(F)cc1F` [Ex. 17, 6-Fluoro-1-(2,4-difluorophenyl)-1,4-dihydro-5-methyl-4-oxo-7-(1-piperazinyl)-3-quinolinecarboxylic acid] has an MIC (Escherichia coli Vogel; [9]) of 0.05 µg/mL (≈ 0.12 µM), an MIC [1, 10] of 0.05 µg/mL (≈ 0.12 µM) and an MIC [2] of 0.1 µg/mL (≈ 0.24 µM). It also gave an MIC [3] of 0.1 µg/mL (≈ 0.24 µM), an MIC [4] of 0.8 µg/mL (≈ 1.92 µM) and an MIC [5] of 0.2 µg/mL (≈ 0.479 µM). The MIC [6] was 0.05 µg/mL (≈ 0.12 µM), the MIC (Proteus rettgeri M 1771) was 0.2 µg/mL (≈ 0.479 µM) and the MIC [7, 11] was 0.1 µg/mL (≈ 0.24 µM). For the same compound, the MIC [8, 12] was 0.025 µg/mL (≈ 0.0599 µM).

`CCn1cc(C(=O)O)c(=O)c2c(C)c(F)c(N3CCNCC3)c(F)c21` [Ex. 12, 1-Ethyl-6,8-difluoro-1,4-dihydro-5-methyl-4-oxo-7-(1-piperazinyl)-3-quinolinecarboxylic acid] gave an MIC (Escherichia coli Vogel; Escherichia coli) of 0.05 µg/mL (≈ 0.142 µM), an MIC [1, 13] of 0.05 µg/mL (≈ 0.142 µM) and an MIC [2] of 0.8 µg/mL (≈ 2.28 µM). The MIC [3] was 12.5 µg/mL (≈ 35.6 µM), the MIC [4] was 1.6 µg/mL (≈ 4.55 µM) and the MIC [5] was 3.1 µg/mL (≈ 8.82 µM). It also gave an MIC [6] of 6.3 µg/mL (≈ 17.9 µM), an MIC (Proteus rettgeri M 1771) of 0.4 µg/mL (≈ 1.14 µM) and an MIC [7, 11] of 0.2 µg/mL (≈ 0.569 µM). The MIC [8, 14] was 0.2 µg/mL (≈ 0.569 µM).

With `Cc1c(F)c(N2CC[C@@H]([C@H](C)N)C2)nc2c1c(=O)c(C(=O)O)cn2-c1ccc(F)cc1F` [Ex. 23, 3R, 1'S-7-[3-(1-Aminoethyl)-1-pyrrolidinyl]-1-(2,4-difluorophenyl)-6-fluoro-1,4-dihydro-5-methyl-4-oxo-1,8-naphthyridine carboxylic acid] the MIC (Escherichia coli Vogel; [9]) was 0.1 µg/mL (≈ 0.224 µM), the MIC [1, 10] was 0.2 µg/mL (≈ 0.448 µM) and the MIC [2] was 0.006 µg/mL (≈ 0.0134 µM). The MIC [3] was 0.003 µg/mL (≈ 0.00672 µM), the MIC [4] was 0.2 µg/mL (≈ 0.448 µM) and the MIC [5] was 0.013 µg/mL (≈ 0.0291 µM). For the same compound, the MIC [6] was 0.003 µg/mL (≈ 0.00672 µM), the MIC (Proteus rettgeri M 1771) was 0.2 µg/mL (≈ 0.448 µM) and the MIC ([7]; Klebsiella pneumoniae, MGH2, read-out: Minimal Inhibitory Concentration MIC) was 0.1 µg/mL (≈ 0.224 µM). For the same compound, the MIC [8, 12] was 0.003 µg/mL (≈ 0.00672 µM).

For `Cc1c(F)c(N2CCC(N)C2)cc2c1c(=O)c(C(=O)O)cn2C1CC1` (stereo not shown) [Ex. 8, 7-(3-Amino-1-pyrrolidinyl)-1-cyclopropyl-6-fluoro-1,4-dihydro-5-methyl-4-oxo-3-quinolinecarboxylic acid], the MIC (Escherichia coli Vogel; [9]) was 0.025 µg/mL (≈ 0.0724 µM), the MIC [1, 13] was 0.05 µg/mL (≈ 0.145 µM) and the MIC [2] was 0.1 µg/mL (≈ 0.29 µM). The MIC [3] was 0.025 µg/mL (≈ 0.0724 µM), the MIC [4] was 0.4 µg/mL (≈ 1.16 µM) and the MIC [5] was 0.4 µg/mL (≈ 1.16 µM). The MIC [6] was 0.013 µg/mL (≈ 0.0376 µM), the MIC (Proteus rettgeri M 1771) was 0.1 µg/mL (≈ 0.29 µM) and the MIC [7, 11] was 0.1 µg/mL (≈ 0.29 µM). For the same compound, the MIC [8, 12] was 0.025 µg/mL (≈ 0.0724 µM).

In the case of `Cc1c(F)c(N2CCC(C)(CN)C2)cc2c1c(=O)c(C(=O)O)cn2C1CC1` (stereo not shown) [Ex. 9, 7-[3-(Aminomethyl)-3-methyl-1-pyrrolidinyl]-1-cyclopropyl-6-fluoro-1,4-dihydro-5-methyl-4-oxo-3-quinolinecarboxylic acid], the MIC (Escherichia coli Vogel; [9]) is reported as 0.1 µg/mL (≈ 0.268 µM), the MIC [1, 10] is reported as 0.1 µg/mL (≈ 0.268 µM) and the MIC [2] is reported as 0.025 µg/mL (≈ 0.0669 µM). The MIC [3] was 0.013 µg/mL (≈ 0.0348 µM), the MIC [4] was 1.6 µg/mL (≈ 4.28 µM) and the MIC [5] was 0.1 µg/mL (≈ 0.268 µM). It also gave an MIC [6] of 0.006 µg/mL (≈ 0.0161 µM), an MIC (Proteus rettgeri M 1771) of 0.8 µg/mL (≈ 2.14 µM) and an MIC [7, 11] of 0.4 µg/mL (≈ 1.07 µM). The MIC [8, 12] was 0.006 µg/mL (≈ 0.0161 µM).

`Cc1c(F)c(N2CC(C)NC(C)C2)c(F)c2c1c(=O)c(C(=O)O)cn2-c1ccc(F)cc1F` (stereo not shown) [Ex. 14a, 6,8-Difluoro-1-(2,4-difluorophenyl)-1,4-dihydro-5-methyl-7-(3,5-dimethyl-1-piperazinyl)-4-oxo-3-quinolinecarboxylic acid] gave an MIC (Escherichia coli Vogel; [9]) of 0.4 µg/mL (≈ 0.863 µM), an MIC [1, 10] of 0.4 µg/mL (≈ 0.863 µM) and an MIC [2] of 0.4 µg/mL (≈ 0.863 µM). It also gave an MIC [3] of 1.6 µg/mL (≈ 3.45 µM), an MIC [4] of 3.1 µg/mL (≈ 6.69 µM) and an MIC [5] of 1.6 µg/mL (≈ 3.45 µM). For the same compound, the MIC [6] was 0.8 µg/mL (≈ 1.73 µM), the MIC (Proteus rettgeri M 1771) was 3.1 µg/mL (≈ 6.69 µM) and the MIC [7, 11] was 1.6 µg/mL (≈ 3.45 µM). For the same compound, the MIC [8, 14] was 0.2 µg/mL (≈ 0.432 µM).

`Cc1c(F)c(N2CCNCC2)c(F)c2c1c(=O)c(C(=O)O)cn2-c1ccc(F)cc1F` [Ex. 14, 6,8-Difluoro-1-(2,4-difluorophenyl)-1,4-dihydro-5-methyl-4-oxo-7-(1-piperazinyl)-3-quinolinecarboxylic acid] gave an MIC (Escherichia coli Vogel; [9]) of 0.05 µg/mL (≈ 0.115 µM), an MIC [1, 10] of 0.1 µg/mL (≈ 0.23 µM) and an MIC [2] of 0.2 µg/mL (≈ 0.459 µM). The MIC [3] was 0.4 µg/mL (≈ 0.919 µM), the MIC [4] was 0.8 µg/mL (≈ 1.84 µM) and the MIC [5] was 0.4 µg/mL (≈ 0.919 µM). The MIC [6] was 0.4 µg/mL (≈ 0.919 µM), the MIC (Proteus rettgeri M 1771) was 0.4 µg/mL (≈ 0.919 µM) and the MIC [7, 11] was 0.4 µg/mL (≈ 0.919 µM). It also gave an MIC [8, 12] of 0.05 µg/mL (≈ 0.115 µM).
